Reference: article PMC6644330 (ACS Omega, 2017)
Marks after values point to notes of the source that are not given here.

Key:
[1] = type: physicochemical; details: for log KOW (eq 5b): corrected for phase volume ratio vO/vW; for migration from water to octanol (log KOW could not be measured): zwitterions
[2] = cited from earlier work
[3] = 1H NMR method, preliminary account in the Magritek laboratory manual; cited from earlier work

SMILES	log KOW (eq 5b) ([1]; 20–21 °C)	literature log KOW (ref ([9])) [2]	other results
C1COCCO1 [1,4-dioxane]	–0.31	–0.27	–
CCC(C)O (stereo not shown) [2-butanol]	0.65	0.61	–
CC(C)CO [2-methylpropanol-1]	0.89	0.76	–
CC(C)=O [acetone]	–0.24	–0.24	KOW ([1]; single measurement, eq 4): 0.589; log KOW ([1]; single measurement, eq 4): −0.23; log KOW (ref ([14])) [3]: –0.23
CC#N [acetonitrile]	–0.28	–0.34	log KOW (ref ([14])) [3]: –0.51
C[C@H](N)C(=O)O [alanine]	–	–	migration from water to octanol (log KOW could not be measured) [1]: did not migrate to any detectable extent
CCC(C)=O [butanone]	0.33	0.29	–
C[S+](C)[O-] [dimethyl sulfoxide]	–1.87	–1.35	literature log KOW [2]: −2.03 (ref ([1]))
CN(C)C=O [dimethylformamide]	–1.03	–	–
CCOC(C)=O [ethyl acetate]	0.88	0.73	–
NCC(=O)O [glycine]	–	–	migration from water to octanol (log KOW could not be measured) [1]: did not migrate to any detectable extent
CO [methanol]	–0.75	–0.77	log KOW (eq 5b), corrected for OH ([1]; 20–21 °C, corrected for phase volume ratio and for OH): −0.71 ^c; log KOW ± SD (eq 4, this work), corrected for OH ([1]; 20–21 °C, n = 5, equal phase volumes assumed, corrected for OH): –0.72 ^c ± 0.016 (n = 5); correction of log KOW for alcohol OH protons ([1]; increase of log KOW): 0.04
COC(C)=O [methyl acetate]	0.19	0.18	–
C1CCOC1 [tetrahydrofuran]	0.44	0.46	log KOW (ref ([14])) [3]: 0.43
